In patent US20250136634A1, “CAP ANALOG AND USE THEREOF” (SHANGHAI HONGENE BIOTECH CORPORATION, priority 2021, published 2025):

System: Hela cells (ATCC CCL-2)
Assay: Protein expression of Gaussia luciferase mRNA with various initial caps in transfected Hela cells
Assay type: cell-based
Settings: 2 ug mRNA/well, 24 h after transfection, relative to ^m7GpppApG cap, mean±SD; for Relative Luciferase Unit RLU (after purification): HPLC-purified mRNA; for Relative Luciferase Unit RLU (no purification): unpurified mRNA
Procedure: In this example, Hela cells (ATCC CCL-2) were transfected with luciferase mRNAs (Gaussia luciferase) comprising various initial cap structures (the initial cap nucleotide structures comprised are: ^m7GpppApG, ^m7GpppA2′Ome pG, ^m7G3′OmepppA2′O-ethylpG, ^m7G2′OmepppA2′O-ethylpG, ^m7G3′OmepppA2′O-MOEpG, ^m7G2′O-mepppA2′O-MOEpG, ^m7Gppp(N6-methyladenine)2′O-MOEpG, ^m7G2′OmepppC2′O-ethylpC, ^m7G3′OmepppA2′O-MOEpU), and the signal intensity of luciferase was detected by microplate reader after 24 h. The fluorescence signal intensity was proportional to the abundance of protein expression. Hela cells were seeded at a density of 4×10^5/well in 6-well plates, and transfection was carried out when the cell density reached approximately 80%. Each well was transfected with 2 ug mRNA, and the transfection reagent was Lipofectamine MessengerMAX Transfection Reagent (Invitrogen), and the transfection steps were carried out according to the instructions. Twenty-four hours after transfection, the signal intensity of luciferase was measured on microplate reader. Measurement of luciferase fluorescence: the transfected cell culture solution was transferred to a 1.5 mL centrifuge tube and centrifuged, 10 ul of cell supernatant was taken and added to a 96-well plate, and 50 ul of 10 ng/ml substrate was added, and then the fluorescence intensity was measured on Synergy HI (BioTek) instrument. The expression of each mRNA was required to be measured 6 times and the expression results were relative values to the results of ^m7GpppApG cap.
The fluorescence signal intensity was proportional to the abundance of protein expression.
Hela cells were seeded at a density of 4×10^5/well in 6-well plates, and transfection was carried out when the cell density reached approximately 80%. Each well was transfected with 2 ug mRNA, and the transfection reagent was Lipofectamine MessengerMAX Transfection Reagent (Invitrogen), and the transfection steps were carried out according to the instructions. Twenty-four hours after transfection, the signal intensity of luciferase was measured on microplate reader. Measurement of luciferase fluorescence: the transfected cell culture solution was transferred to a 1.5 mL centrifuge tube and centrifuged, 10 ul of cell supernatant was taken and added to a 96-well plate, and 50 ul of 10 ng/ml substrate was added, and then the fluorescence intensity was measured on Synergy HI (BioTek) instrument. The expression of each mRNA was required to be measured 6 times and the expression results were relative values to the results of ^m7GpppApG cap.

Substance	Relative Luciferase Unit RLU (after purification) (Example 2)	Relative Luciferase Unit RLU (no purification) (Example 2)	Relative Luciferase Unit RLU (after purification) (Example 3 (IVT at 50° C.))	Relative Luciferase Unit RLU (no purification) (Example 3 (IVT at 50° C.))
^m7G2′OmepppA2′O-MOEpG	5.11 ± 0.17	4.47 ± 0.07	–	–
^m7G2′OmepppA2′O-ethylpG	3.34 ± 0.01	2.83 ± 0.11	–	–
^m7G2′OmepppC2′O-ethylpC	1.71 ± 0.18	1.33 ± 0.06	–	–
^m7G3′OmepppA2′O-MOEpG	4.18 ± 0.16	3.3 ± 0.13	–	–
^m7G3′OmepppA2′O-MOEpU	1.76 ± 0.12	1.32 ± 0.06	–	–
^m7G3′OmepppA2′O-ethylpG	2.73 ± 0.03	2.63 ± 0.15	–	–
^m7GAlpha-L-LNApppA2′O-ethyl pG	–	–	2.97 ± 0.09	2.67 ± 0.02
^m7GBeta-D-LNApppA2′O-MOEpG	–	–	3.45 ± 0.01	3 ± 0.12
^m7Gppp(N6-methyladenine)2′O-MOEpG	3.23 ± 0.07	2.98 ± 0.02	–	–
^m7GpppA2′Ome pG [reference compound]	3.3 ± 0.13	2.94 ± 0.02	1.56 ± 0.11	1.25 ± 0.11
^m7GpppApG [reference compound]	1 ± 0.19	1 ± 0.02	1 ± 0.12	1 ± 0.02
